Numbers after ± are expanded uncertainties.
Assays:
[1] = wn = mass fraction of the nth substance listed; conditions: for viscosity / mass density: 101 kPa, Liquid; for viscosity: Capillary tube (Ostwald / Ubbelohde) method; for mass density: Pycnometric method; for surface tension liquid-gas: Pendant drop shape
[2] = 101.33 kPa, Liquid; for viscosity: Capillary tube (Ostwald / Ubbelohde) method; for mass density: Pycnometric method

CN(CCO)CCO [N-methyldiethanolamine] + O
[1]
Conditions	mass density, 303.2 K [kg/m3]	mass density, 313.2 K [kg/m3]	mass density, 323.2 K [kg/m3]	mass density, 333.2 K [kg/m3]	viscosity, 303.2 K [mPa·s]	viscosity, 313.2 K [mPa·s]	viscosity, 323.2 K [mPa·s]	viscosity, 333.2 K [mPa·s]
w1 = 0.1	1003.8 ± 1	999.5 ± 1	995.2 ± 1	990.5 ± 1	1.164 ± 0.061	0.912 ± 0.061	0.752 ± 0.061	0.635 ± 0.06
w1 = 0.2	1012.4 ± 1	1008.4 ± 1	1003.5 ± 1	998.6 ± 1	1.635 ± 0.063	1.314 ± 0.062	1.06 ± 0.06	0.867 ± 0.061
w1 = 0.3	1024.5 ± 1	1019.5 ± 1	1015.2 ± 1	1008.2 ± 1	2.634 ± 0.066	1.946 ± 0.064	1.517 ± 0.062	1.219 ± 0.061

NCCN1CCNCC1 [N-(β-aminoethyl)piperazine)]
[2]
Conditions	mass density [kg/m3]	viscosity [mPa·s]
303.2 K	981.129 ± 1	14.18 ± 0.17
313.2 K	977.356 ± 1	8.669 ± 0.14
323.2 K	973.989 ± 1	5.626 ± 0.11
333.2 K	969.461 ± 1.1	4.481 ± 0.097
343.2 K	965.122 ± 1.1	3.697 ± 0.095

OCCNCCO [diethanolamine] + O
surface tension liquid-gas [mN/m], [1]
Conditions	313.2 K	323.2 K	333.2 K
w1 = 0.1	60.42 ± 0.83	59.18 ± 0.83	58.85 ± 0.82
w1 = 0.2	63.07 ± 0.84	62.23 ± 0.84	60.56 ± 0.84
w1 = 0.3	61.57 ± 0.84	60.13 ± 0.84	58.43 ± 0.83
